Measurements reported in patent US20250368987A1, “COMPOSITION COMPRISING TAF10 INHIBITOR FOR PREVENTING OR TREATING COLORECTAL CANCER” (KOREA ADVANCED INSTITUTE OF SCIENCE AND TECHNOLOGY, priority 2021, published 2025).

Tests used:
HCT116 [1] = test: Combined TAF10 inhibition and oxaliplatin in colorectal cancer-inducing animal model; type: in vivo, Nude mice
Description: First, TAF10 WT (wild type) and TAF10 knockdown (KD) cells were prepared in the same manner as in Experimental Example 1-3 using shRNA consisting of a base sequence represented by SEQ ID NO: 7 in HCT116, which was a colorectal cancer cell line. 2×10^6 of TAF10 WT or TAF10 KD was prepared and subcutaneously injected into Nude mice deficient of an immune system. Tumor occurrence was confirmed every two days, and its size was measured. In addition, in order to confirm the effect of combined treatment with anticancer agents, the colorectal cancer-inducing animal model prepared in the same manner as before was divided into four experimental groups, and after 2 weeks (14 days) when the tumor had formed to some extent, a control group was administered with PBS and in the experimental group, oxaliplatin was injected into the abdominal cavity at a concentration of 10 mg/kg every two days.
In addition, the combined effect in vivo was confirmed using a colorectal cancer-inducing animal model prepared by subcutaneously injecting HCT116 in which TAF10 was inhibited or HCT116 in which TAF10 was not inhibited. From two weeks after the tumor in each experimental group was formed, WT and KD were divided into two experimental groups. […]

cancer cells = test: Combined TAF10 inhibition and oxaliplatin: confluence, PI staining, FACS cell death; type: cell-based
Description: (§1) Infected cells were inoculated in a 96-well plate (6×10^3 cell/well) to measure the cell growth and the cell growth was recorded every 3 hours using IncuCyte ZOOM (Essen Bioscience), and cell confluence was analyzed using IncuCyte ZOOM 2016A software.
Meanwhile, an increase in the cancer stemness of cancer cells may also cause increased resistance of cancer cells to anticancer agents. Therefore, a colorectal cancer animal model in which TAF10 was inhibited or not was treated with the anticancer agent, oxaliplatin (1 μM concentration) and its therapeutic effect was confirmed.
In addition, as a result of staining cells by treating a PI solution capable of confirming cell death, it was confirmed that proliferation was suppressed when TAF10 was inhibited, and that the number of dying cells increased when treated with oxaliplatin along with TAF10 inhibition (FIG. 9B).
In addition, the degree of cell death through PI and 7-AAD was confirmed through FACS. In this regard, Q1 means NECROSIS, Q2 means LATE APOPTOSIS, Q3 means EARLY APOPTOSIS, and Q4 means live cells. The degree of cell death may be determined by increasing the ratio of Q2. As a result, it was confirmed that the ratio of Q2 increased when TAF10 was inhibited and oxaliplatin was combined, so that it was confirmed that cell death increased (FIG. 9C).

HCT116 [2] = test: Cell growth (IncuCyte confluence) after siRNA transfection; type: cell-based; details: HCT116, siRNA 30 nM, FIG. 2A
Description: (§2) Transfection reagents RNAiMAX (Thermo Fisher Scientific) and siRNA (BIONEER Corporation, Daejeon, South Korea) were mixed in an Opti-mem medium at a final concentration of 30 nM. Target cells were cultured with the mixture, and then cells were harvested for RNA extraction after 72 hours of siRNA transfection.
The used siRNAs siNPM1, siTAF10, and siZNHIT1 were as follows. • (SEQ ID NO: 1) siTAF10-SENSE: GUGAAGAAGCCGCACUACU • (SEQ ID NO: 2) siTAF10-ANTISENSE: AGUAGUGCGGCUUCUUCAC • (SEQ ID NO: 3) siNPM1-SENSE: […] GA • (SEQ ID NO: 4) siNPM1-ANTISENSE: […] UC • (SEQ ID NO: 5) siZNHIT1-SENSE: GAGACUGCCUCAGUUUGAU • (SEQ ID NO: 6) siZNHIT1-ANTISENSE: AUCAAACUGAGGCAGUCUC 1-3. Transfection and Transduction of shRNA
as §1
Based on those confirmed in Example 1, NPM1, TAF, or ZNHIT1 of the colorectal cancer cell line HCT116 was inhibited as in Experimental Example 1-2, and its growth ability was confirmed. […] In addition, as a result of confirming overall survival probability when TAF10 is inhibited in The Cancer Genome Atlas (TCGA) as a large-scale cancer database, it was confirmed that the survival probability was increased (see FIG. 2B). […]

HCT116 [3] = test: Western blot protein expression upon TAF10 inhibition; type: cell-based
Description: Cellular proteins were dissolved and extracted on ice in a lysis buffer (20 mM HEPES (pH 7.2), 150 mM NaCl, 0.5% Triton X-100, 10% glycerol, 0.1% SDS) containing 0.1% protease inhibitor and phosphatase inhibitor cocktail (Thermo-scientific, USA). The proteins were separated through protein electrophoresis (10% gel) and transferred to a PVDF membrane. For Western blot, an anti-TAF10 (ab263967) antibody was purchased from Abcam, anti-AKT1 (2938S), anti-phosphoAkt (2965S), anti-phospho B-raf (#2696), anti-MEK1/2. (#9122), anti-phosphoERK1/2 (#9106), anti-STAT3 (#9139), and anti-phosphoSTAT3 (#9131) antibodies were purchased from Cell signaling, and anti-phospho m-TOR (sc-293133), anti-phosphoMEK1/2 (sc-81503), anti-CyclinE1 (sc-247), anti-CDK2 (sc-6248), and anti-VEGF (sc7269) antibodies were purchased and used from Santacruz. A rabbit polyclonal anti-GAPDH antibody was provided and used from the Korea Research Institute of Bioscience and Biotechnology. The expression of each protein band was confirmed using an enhanced chemiluminescence (ECL) solution.
Through Example, it was confirmed that the TAF10 inhibition suppressed the growth of HCT116, a colorectal cancer cell line. […]

HCT116 [4] = test: qRT-PCR gene expression upon TAF10 inhibition; type: cell-based
HCT116 [5] = test: Senescence b-galactosidase staining; type: cell-based; details: HCT116, FIG. 5C
HT29 = test: Growth rate of colorectal cancer cell line upon TAF10 inhibition (siRNA); type: cell-based; details: FIG. 4A
Description: as §2, §1
(§3) Through Example, it was confirmed that the TAF10 inhibition suppressed the growth of HCT116, a colorectal cancer cell line. As a result, the expression genes and proteins related with the growth rate and cell growth and the expression of genes and proteins related to cell cycle arrest were confirmed according to TAF10 inhibition (using siRNA) in HT29 and CACO2 colorectal cancer cell lines, which were other colorectal cancer cell lines. In addition, the cell cycle was confirmed according to TAF10 inhibition, and whether there was an increase in senescent cells was confirmed. The senescent cells were confirmed by staining the senescent cells using a senescence b-galactosidase staining kit (Cell signaling).

CACO2 = test: as above; type: cell-based; details: FIG. 4A
Description: as §2, §1, §3

HCT116 [6] = test: Cell cycle by FACS (PI staining); type: cell-based; details: HCT116, FIG. 5B
Description: The cells were treated with trypsin-EDTA, separated into single cells, washed twice with PBS, and fixed with 70% ethanol for 1 hour at −20° C. After washing again with PBS twice, the cells were treated with 20 μg/ml of RNase A, and flow cytometry analysis was performed through 20 μg/ml of propidium iodide (PI) staining.
as §3

Compound	tumor size (HCT116 [1]; TAF10 KD HCT116, oxaliplatin 10 mg/kg once every two days, after 44 days, FIG. 9E)	tumor size (tumor volume over time) (HCT116 [1]; TAF10 inhibited and oxaliplatin, FIGS. 9D and 9E)	effect of TAF10 inhibition on the anticancer effect of oxaliplatin (cancer cells; FIG. 9)	cancer confluence (cancer cells; TAF10 inhibited and oxaliplatin 1 μM, FIG. 9A)	ratio of Q2 (LATE APOPTOSIS), FACS PI and 7-AAD (cancer cells; TAF10 inhibited and oxaliplatin combined, FIG. 9C)	number of dying cells (PI staining) (cancer cells; oxaliplatin along with TAF10 inhibition, FIG. 9B)	cell proliferation (HCT116 [2])	expression of proteins Cyclin E1 and CDK2 related to cell cycle arrest (HCT116 [3]; FIG. 5A)	expression of proteins tAkt1, pAkt, pGSK-3β, m-TOR, pB-raf, tMEK1/2, pMEK1/2, and pERK1/2 (HCT116 [3]; HCT116, FIG. 4B)	expression of genes TP53, CDKN1A, and CXCL8 related to cell cycle arrest (HCT116 [4]; FIG. 5A)	expression of genes MKI167, PCNA, and MCM7 related to cell growth (HCT116 [4]; HCT116, FIG. 4B)	number of senescent cells (HCT116 [5])	growth rate (HT29)	growth rate (CACO2)	cell cycle (HCT116 [6])
O=C1[O][Pt]2([NH][C@@H]3CCCC[C@H]3[NH]2)[O]C1=O [oxaliplatin]	significantly reduced	significantly reduced	synergistic effect	significantly reduced	increased	increased									
siTAF10: siRNA targeting TAF10; sense GUGAAGAAGCCGCACUACU (SEQ ID NO: 1), antisense AGUAGUGCGGCUUCUUCAC (SEQ ID NO: 2) (listed as RNA, chemistry not given here)							significantly reduced	increased	reduced	increased	reduced	increased	reduced	reduced	arrested
